Values quoted from earlier work as cited in patent US10105405B2, “Compositions and methods for enhancing brain function using acetyl-L-carnitine, huperzine A and ginkgo biloba” (priority 2006, dated 2018).

Tested on: aged subjects, patients with benign senescent forgetfulness, Alzheimer's disease (AD) and vascular dementia (VD)

SMILES: C/C=C1\[C@H]2C=C(C)C[C@]1(N)c1ccc(=O)[nH]c1C2 [Huperzine A]
- memory deficits (clinical trials in China): significantly relieves memory deficits
- peripheral cholinergic side effects (compared with other AChEIs in use): minimal peripheral cholinergic side effects
